Where two headings read alike, the source gives them in different places. *1 amine or outer side, *2 acyl side, *3 side chain or, on linkers, in order; H or OH if unused. Where a SMILES comes first, the peptide text is derived from it. Bridges are numbered along the chain shown (N, C = ends). Where no end group is shown, it is not given here. [ ]: non-standard residue; d: D form. The star is where a group is joined. Ttds = 1,13-diamino-4,7,10-trioxatridecan-succinamic acid, NCCCOCCOCCOCCCNC(=O)CCC(=O)*; X13 = O=C(CN1CCN2CCN3CCN(CC1)CC(=O)[O][Lu]([O]C(=O)C2)[O]C(=O)C3)NCCCOCCOCCOCCCN*; DOTA(Ga) = O=C1CN2CCN3CCN(CC(=O)*)CCN(CC2)CC(=O)[O][Ga]([O]1)[O]C(=O)C3; DOTA(In) = O=C1CN2CCN3CCN(CC(=O)*)CCN(CC2)CC(=O)[O][In]([O]1)[O]C(=O)C3; NH(1-deoxy-D-glucityl) = OC[C@@H](O)[C@@H](O)[C@H](O)[C@@H](O)CN*; DOTA = O=C(O)CN1CCN(CC(=O)O)CCN(CC(=O)*)CCN(CC(=O)O)CC1; Trp(5-Cl) = N[C@@H](Cc1c[nH]c2ccc(Cl)cc12)C(=O)O; Pyridine(2,6-diCH2) = c1cc(C[*:1])nc(C[*:2])c1; Pro(4R-NH2) = N[C@H]1CN[C@H](C(=O)O)C1; AETO = 2-aminoethane-1-thiol oxidized; mXylylene = c1cc(C[*:1])cc(C[*:2])c1; Glutaryl = O=C(CCCC(=O)[*:2])[*:1]; X6 = c1cc(CSCCN[*:2])nc(C[*:1])c1; X7 = c1cc(CSCCN[*:2])cc(C[*:1])c1; Hyp = O=C(O)[C@@H]1C[C@@H](O)CN1; X1 = O=C(CN1CCC(N[*:1])CC1)[*:2]; Cysteamide = C(CS[*:3])N[*:1]; Suc = O=C(CCC(=O)[*:2])[*:1]; hLeu = CC(C)CC[C@H](N)C(=O)O; 3Lut = 3,5-lutidylidene; Api = NC1(C(=O)O)CCNCC1; Dap = NC[C@H](N)C(=O)O; Aib = CC(C)(N)C(=O)O
Tests used:
[1] = biological target: T1, GIPR (CHO-K1-hGIPR cells) (Homo sapiens, UniProt P48546); test: FACS binding assay; conditions: competition with 20 nM GIP-057, 4° C., 1 hour
T1 construct: host or cells: CHO-K1
T1 sequence (P48546 22-466): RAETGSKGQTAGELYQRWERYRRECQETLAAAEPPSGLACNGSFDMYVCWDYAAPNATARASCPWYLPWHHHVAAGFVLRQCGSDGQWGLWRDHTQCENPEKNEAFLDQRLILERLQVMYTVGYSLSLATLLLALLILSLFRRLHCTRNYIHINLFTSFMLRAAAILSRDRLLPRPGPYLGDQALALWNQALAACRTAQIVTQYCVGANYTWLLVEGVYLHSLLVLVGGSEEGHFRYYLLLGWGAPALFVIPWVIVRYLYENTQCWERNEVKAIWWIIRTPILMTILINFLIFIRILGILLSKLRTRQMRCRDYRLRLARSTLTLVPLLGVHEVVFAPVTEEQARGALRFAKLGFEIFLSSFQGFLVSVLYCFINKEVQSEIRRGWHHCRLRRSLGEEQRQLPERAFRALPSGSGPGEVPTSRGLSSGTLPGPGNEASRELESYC
In short: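 Median fluorescence in the APC channel, measured on washed CHO-K1 cells overexpressing human GIPR, was fitted by four-parameter logistic regression against peptide concentration to yield EC50 or IC50 values. Secondary labelling used APC-streptavidin (1 μg/mL, 30 min, ice).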

[2] = biological target: T2, human GIP receptor (bioGIPR) (Homo sapiens, UniProt P48546); test: Surface plasmon resonance (SPR) based binding assay; conditions: for t1/2 Category: SPR dissociation half-life
T2 construct: Biotinylate extracellular of the human GIP receptor (bioGIPR, Proteros biostructures GmbH, lot #02/2b); purchased Proteros biostructures GmbH lot #02/2b
T2 sequence (P48546 22-138 limits assumed): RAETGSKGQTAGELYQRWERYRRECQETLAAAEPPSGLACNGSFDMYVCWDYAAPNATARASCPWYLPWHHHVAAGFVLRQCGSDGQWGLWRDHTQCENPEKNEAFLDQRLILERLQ
Procedure: Surface plasmon resonance (SPR) studies were performed using a Biacore™ T200 SPR system. Briefly, polarized light is directed towards a gold-labeled sensor surface, and minimum intensity reflected light is detected. The angle of reflected light changes as molecules bind and dissociate.
Biotinylate extracellular of the human GIP receptor (bioGIPR, Proteros biostructures GmbH, lot #02/2b) was captured on a biotin capture chip (Biotin CAPture Kit, Series S, GE Healthcare, Cat #28-9202-34). bioGIPR was diluted in Running Buffer (HBST from Xantec Analytics; […], 0.05% Tween20, 0.1% DMSO) to a final concentration 100 nM and than flushed over the Fc-capture chip to immobilized ˜3500 RUs.
Stock solutions of test compounds were prepared by dissolving each compound in DMSO. DMSO stock solution were diluted 1:1000 in Running Buffer without DMSO. Further sequential dilutions were made with Running Buffer containing 0.1% DMSO. SPR binding analyses were performed in Single Cycle Kinetic (SCK) mode at 25° C. Flow cell without immobilized bioGIPR served as reference flowcell. After each SCK run, bioGIRP and the Biotin Capture Reagent was removed with Regeneration Solution (6 M Guanidium, 0.75 M NaOH).
In between every three SCK measurements, a blank run with Running Buffer instead of test compound was included to correct for baseline drifts (double blanking method).
For each test compound, SPR raw data in the form of resonance units (RU) were plotted as sensorgrams using the Biacore™ T200 control software. The signal from the blank sensorgram was subtracted from that of the test compound sensorgram (blank corrected). The blank corrected sensorgram was corrected for baseline drift by subtracting the sensorgram of a SCK run without the test compound (running buffer only). The association rate (kon), dissociation rate (koff), dissociation constant (KD), and t1/2 were calculated from blank corrected SPR data using the 1:1 Langmuir binding model from the Biacore™ T200 evaluation software. Raw data and fit results were imported as text files in IDBS. The pKD value (negative decadic logarithm of dissociation constant) was calculated in the IDBS excel template.

[3] = biological target: human Gastric Inhibitory Peptide Receptor (human) (UniProt P48546); test: FACS competition with GIP-057 on CHO-K1-hGIPR cells; pIC50 category A: >8.0
[4] = read-out: pIC50 Category (converted)
[5] = SPR, Single Cycle Kinetic mode, 25° C., 1:1 Langmuir binding model, read-out: pKD Category (converted)
[6] = Single Cycle Kinetic mode, 25° C.

## CC[C@H](C)[C@@H]1NC(=O)[C@H](CC(C)C)NC(=O)C2(CCN(C(=O)CN3CCN4CCN5CCN(CC3)CC(=O)[O][In]([O]C(=O)C5)[O]C(=O)C4)CC2)NC(=O)[C@@H](NC(=O)[C@@H](CC(C)C)NC(=O)[C@H](CCC(=O)O)NC(=O)[C@@H]2C[C@@H](O)CN2C(=O)[C@H](Cc2c[nH]c3ccc(Cl)cc23)NC(=O)[C@H](Cc2c[nH]c3ccccc23)NC(=O)[C@H](CC(=O)O)NC(=O)CCCC(=O)NC[C@H](O)[C@@H](O)[C@H](O)[C@H](O)CO)CSCc2cccc(n2)CSCCNC1=O [GIP-146, AGLU-Glutar-Asp-Trp-5Clw-Hyp-Glu-leu-[Cys(2Lut)-Apc(InDOTA)-Leu-Ile-AET]] ({NH(1-deoxy-D-glucityl)-Glutaryl}-DW[Trp(5-Cl)][Hyp]E[dL]C[Api](DOTA(In))LI; linker 7-C via X6)
[1]; [4]
  IC50: < 10 nM
[2]; [5]
  Kd: < 1 nM

## CC[C@H](C)[C@@H]1NC(=O)[C@H](CC(C)C)NC(=O)C2(CCN(C(=O)CN3CCN4CCN5CCN(CC3)CC(=O)[O][In]([O]C(=O)C5)[O]C(=O)C4)CC2)NC(=O)[C@@H](NC(=O)[C@@H](CC(C)C)NC(=O)[C@H](CCC(=O)O)NC(=O)[C@@H]2C[C@@H](O)CN2C(=O)[C@H](Cc2c[nH]c3ccc(Cl)cc23)NC(=O)[C@H](Cc2c[nH]c3ccccc23)NC(=O)CCC(=O)O)CSCc2cccc(n2)CSCCNC1=O [GIP-169, HO-Succinyl-Trp-5Clw-Hyp-Glu-leu-[Cys(2Lut)-Apc(InDOTA)-Leu-Ile-AET]] (Suc-W[Trp(5-Cl)][Hyp]E[dL]C[Api](DOTA(In))LI; linker 6-C via X6)
[1]; pIC50 Category
  IC50: < 10 nM
[2]; [5]
  Kd: < 1 nM

## CC[C@H](C)[C@@H]1NC(=O)[C@H](CC(C)C)NC(=O)C(C)(C)NC(=O)[C@@H](NC(=O)[C@@H](CC(C)C)NC(=O)[C@H](CCC(=O)O)NC(=O)[C@@H]2CCCN2C(=O)[C@H](Cc2c[nH]c3ccc(Cl)cc23)NC(=O)[C@H](Cc2c[nH]c3ccccc23)NC(=O)[C@H](CC(=O)O)NC(=O)CCC(=O)NCCCOCCOCCOCCCNC(=O)CN2CCN3CCN4CCN(CC2)CC(=O)[O][Lu]([O]C(=O)C3)[O]C(=O)C4)CSCc2cccc(c2)CSCCNC1=O [GIP-167, LuDOTA-Ttds-Asp-Trp-5Clw-Pro-Glu-leu-[Cys(3MeBn)-Aib-Leu-Ile-AET]] ({X13-Suc}-DW[Trp(5-Cl)]PE[dL]C[Aib]LI; linker 7-C via X7)
[1]; pIC50 Category
  IC50: < 10 nM
[2]
  Kd: < 1 nM
[2]; [6]
  t1/2 Category: A (t1/2 values>15 min)

## CC[C@H](C)[C@@H]1NC(=O)[C@H](CC(C)C)NC(=O)C2(CCN(C(=O)CN3CCN4CCN5CCN(CC3)CC(=O)[O][Ga]([O]C(=O)C5)[O]C(=O)C4)CC2)NC(=O)[C@@H](NC(=O)[C@@H](CC(C)C)NC(=O)[C@H](CCC(=O)O)NC(=O)[C@@H]2C[C@@H](N)CN2C(=O)[C@H](Cc2c[nH]c3ccc(Cl)cc23)NC(=O)[C@H](Cc2c[nH]c3ccccc23)NC(=O)[C@H](CC(=O)O)NC(=O)CCCC(=O)NC[C@H](O)[C@@H](O)[C@H](O)[C@H](O)CO)CSCc2cccc(n2)CSC[C@@H](C(=O)NC2CCN(CC(=O)N[C@H](CCC(=O)NC[C@H](O)[C@@H](O)[C@H](O)[C@H](O)CO)C(N)=O)CC2)NC1=O [GIP-069, Gallium-Complex of AGLU-Glutar-Asp-Trp-5Clw-Tap-Glu-leu-[Cys(2Lut)-Apc(DOTA)-Leu-Ile-Cys]-APAc-glu(AGLU)-NH2] ({NH(1-deoxy-D-glucityl)-Glutaryl}-DW[Trp(5-Cl)][Pro(4R-NH2)]E[dL]C[Api](DOTA(Ga))LIC[X1][dE](NH(1-deoxy-D-glucityl))-NH2; linker 7-11 via Pyridine(2,6-diCH2))
[1]; [4]
  IC50: < 10 nM
[2]; [6]
  t1/2 Category: A (t1/2 values>15 min)
[2]; [5]
  Kd: < 1 nM

## CC[C@H](C)[C@@H]1NC(=O)[C@H](CC(C)C)NC(=O)C2(CCNCC2)NC(=O)[C@@H](NC(=O)[C@@H](CC(C)C)NC(=O)[C@H](CCC(=O)O)NC(=O)[C@@H]2C[C@@H](N)CN2C(=O)[C@H](Cc2c[nH]c3ccc(Cl)cc23)NC(=O)[C@H](Cc2c[nH]c3ccccc23)NC(=O)CCC(=O)O)CSCc2cccc(n2)CSC[C@@H](C(=O)NC2CCN(CC(=O)N[C@H](CCC(=O)NC[C@H](O)[C@@H](O)[C@H](O)[C@H](O)CO)C(=O)N[C@@H](CCCCNC(=O)CN3CCN(CC(=O)O)CCN(CC(=O)O)CCN(CC(=O)O)CC3)C(N)=O)CC2)NC1=O [GIP-022, HO-Succinyl-Trp-5Clw-Tap-Glu-leu-[Cys(2Lut)-Apc-Leu-Ile-Cys]-APAc-glu(AGLU)-Lys(DOTA)-NH2] (Suc-W[Trp(5-Cl)][Pro(4R-NH2)]E[dL]C[Api]LIC[X1][dE](NH(1-deoxy-D-glucityl))K(DOTA)-NH2; linker 6-10 via Pyridine(2,6-diCH2))
[1]; [4]
  IC50: < 10 nM
[2]; [6]
  t1/2 Category: A (t1/2 values>15 min)
[2]; [5]
  Kd: < 1 nM

B1: DOTA-Ttds-Asp-Trp-5Clw-Hyp-Glu-leu-[Cys(3MeBn)-Aib-Leu-Ile-AET] (peptide)
peptide: {DOTA-Ttds}-DW[Trp(5-Cl)][Hyp]E[dL]C[Aib]LI[Cysteamide]
modifications: linker (positions not given here) via mXylylene; not fully specified (bridges); printed as DOTA-Ttds-Asp-Trp-5Clw-Hyp-Glu-leu-[Cys(3MeBn)-Aib-Leu-Ile-AET]
[3]
  pIC50: > 8 pic50

B2: DOTA-Ttds-Asp-Trp-5Clw-Pro-Glu-leu-[Dap(3MeBn)-Aib-Leu-Ile-AETO] (peptide)
peptide: {DOTA-Ttds}-DW[Trp(5-Cl)]PE[dL][Dap][Aib]LI[AETO]
modifications: linker (positions not given here) via mXylylene; not fully specified (bridges)
[3]
  pIC50: > 8 pic50

B3: DOTA-Ttds-Asp-Trp-5Clw-Pro-Glu-leu-[Cys(3Lut)-Aib-Leu-Ile-AET] (peptide)
peptide: {DOTA-Ttds}-DW[Trp(5-Cl)]PE[dL]C[Aib]LI[Cysteamide]
modifications: linker (positions not given here) via 3Lut; not fully specified (bridges); printed as DOTA-Ttds-Asp-Trp-5Clw-Pro-Glu-leu-[Cys(3Lut)-Aib-Leu-Ile-AET]
[3]
  pIC50: > 8 pic50

B4: DOTA-Ttds-Asp-Trp-5Clw-Pro-Glu-leu-[Cys(3MeBn)-Aib-Hle-Ile-AET] (peptide)
peptide: {DOTA-Ttds}-DW[Trp(5-Cl)]PE[dL]C[Aib][hLeu]I[Cysteamide]
modifications: linker (positions not given here) via mXylylene; not fully specified (bridges); printed as DOTA-Ttds-Asp-Trp-5Clw-Pro-Glu-leu-[Cys(3MeBn)-Aib-Hle-Ile-AET]
[3]
  pIC50: > 8 pic50

B5: DOTA-Ttds-Asp-Trp-5Clw-Pro-Glu-leu-[Dap(3MeBn)-Aib-Leu-Ile-AET] (peptide)
peptide: {DOTA-Ttds}-DW[Trp(5-Cl)]PE[dL][Dap][Aib]LI[Cysteamide]
modifications: linker (positions not given here) via mXylylene; not fully specified (bridges); printed as DOTA-Ttds-Asp-Trp-5Clw-Pro-Glu-leu-[Dap(3MeBn)-Aib-Leu-Ile-AET]
[3]
  pIC50: > 8 pic50

B6: DOTA-Ttds-Asp-Trp-5Clw-Pro-Glu-leu-[Cys(3MeBn)-Aib-Leu-Ile-en] (peptide)
peptide: DWXPEXCXLI
modifications: N-term DOTA-Ttds; 5Clw; leu (D-Leu); cycle [Cys(3MeBn)..en]; Aib
[3]
  pIC50: > 8 pic50

Source: patent US20250296971A1, “GASTRIC INHIBITORY PEPTIDE RECEPTOR LIGANDS” (priority 2021, published 2025)
